Results taken from ChEMBL document CHEMBL5380877, “Azulene as a biphenyl mimetic in orexin/hypocretin receptor agonists” (Bioorg Med Chem, 2023).

molecular target: T1, Orexin/Hypocretin receptor type 1 (Homo sapiens, UniProt O43613); test: Agonist activity at human OX1 receptor expressed in CHO cells assessed as increase in Ca2+ accumulation level measured after 24 hrs by FLIPR calcium 4 assay; type: functional, cell-based
T1 sequence (O43613 whole entry): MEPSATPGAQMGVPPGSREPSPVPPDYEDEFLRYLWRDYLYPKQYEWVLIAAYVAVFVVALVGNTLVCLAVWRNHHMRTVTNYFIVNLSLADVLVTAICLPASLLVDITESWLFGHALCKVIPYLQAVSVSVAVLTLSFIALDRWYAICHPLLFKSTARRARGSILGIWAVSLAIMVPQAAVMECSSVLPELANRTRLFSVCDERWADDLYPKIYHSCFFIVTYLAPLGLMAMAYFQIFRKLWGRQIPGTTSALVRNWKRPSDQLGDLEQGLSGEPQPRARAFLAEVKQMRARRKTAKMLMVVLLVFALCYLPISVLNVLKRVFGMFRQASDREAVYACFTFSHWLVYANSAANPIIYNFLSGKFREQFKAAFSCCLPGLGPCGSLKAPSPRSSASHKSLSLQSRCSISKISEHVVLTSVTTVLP

Compound	EC50
Cc1ccc2c(C(=O)N(C)C)cc(S(=O)(=O)Nc3cccc(NCCNC(=O)c4cccc(C)c4)c3)c-2cc1	1.62 µM

molecular target: T1, Orexin/Hypocretin receptor type 1; test: Antagonist activity at human OX1 receptor expressed in CHO cells assessed as reduction in orexin-A induced calcium level at 10 uM incubated for 24 hrs by FLIPR calcium 4 assay; type: functional, cell-based

Compound	Ki
Cc1ccc2c(C(=O)N(C)C)cc(S(=O)(=O)Nc3cccc(NCCNC(=O)c4cccc(C)c4)c3)c-2cc1	4 µM

molecular target: T2, Orexin receptor type 2 (Homo sapiens, UniProt O43614); test: Antagonist activity at human OX2 receptor expressed in CHO cells assessed as reduction in orexin-A induced calcium level at 10 uM incubated for 24 hrs by FLIPR calcium 4 assay; type: functional, cell-based
T2 sequence (O43614 whole entry): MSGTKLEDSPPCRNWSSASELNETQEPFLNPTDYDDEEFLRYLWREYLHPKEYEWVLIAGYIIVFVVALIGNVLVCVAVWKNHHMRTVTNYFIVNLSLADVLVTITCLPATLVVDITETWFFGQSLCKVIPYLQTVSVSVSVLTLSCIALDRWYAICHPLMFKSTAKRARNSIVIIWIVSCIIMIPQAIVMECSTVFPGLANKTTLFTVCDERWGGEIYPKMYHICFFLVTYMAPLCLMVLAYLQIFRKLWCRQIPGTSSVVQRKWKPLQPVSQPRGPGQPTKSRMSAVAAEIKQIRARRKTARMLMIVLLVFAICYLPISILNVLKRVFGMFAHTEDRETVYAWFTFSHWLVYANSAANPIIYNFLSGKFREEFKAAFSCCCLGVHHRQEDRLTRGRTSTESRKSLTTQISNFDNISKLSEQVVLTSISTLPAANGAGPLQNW

Compound	Ki
Cc1ccc2c(C(=O)C(F)(F)F)cc(S(=O)(=O)O)c-2cc1	> 10 µM
CN(C)C(=O)c1ccc2ccc(C(=O)C(F)(F)F)c-2cc1	> 10 µM
Cc1cccc(C(=O)NCCNc2cccc(NS(=O)(=O)c3cc(C(=O)C(F)(F)F)c4ccc(C(=O)N(C)C)ccc3-4)c2)c1	> 10 µM
Cc1ccc2c(C(=O)N(C)C)cc(S(=O)(=O)Nc3cccc(N(CCNC(=O)c4cccc(C)c4)C(=O)C(F)(F)F)c3)c-2cc1	> 10 µM
Cc1cccc(C(=O)NCCN(C(=O)C(F)(F)F)c2cccc(NS(=O)(=O)c3cc(C(=O)C(F)(F)F)c4ccc(C(=O)N(C)C)ccc3-4)c2)c1	> 10 µM
Cc1ccc2c(C(=O)N(C)C)cc(S(=O)(=O)O)c-2cc1	> 10 µM
CN(C)C(=O)c1ccc2c(C(=O)N(C)C)cc(S(=O)(=O)O)c-2cc1	> 10 µM
Cc1ccc2c(C(=O)C(F)(F)F)cc(S(=O)(=O)Nc3cccc(NCCNC(=O)c4cccc(C)c4)c3)c-2cc1	5 µM
CN(C)C(=O)c1ccc2ccc(C(=O)N(C)C)c-2cc1	> 10 µM
